Columns and labels:
Staphylococcus aureus = experiment: Minimum inhibitory concentration at pH 5 on growth of Staphylococcus aureus; type: cell-based; conditions: Staph. Aureus, pH 5, product alone
Procedure: (§1) a) The minimum inhibitory concentration, at pH 5, of composition according to the invention on the growth of the strains below was determined:
(§2) b) The minimum inhibitory concentration, at pH 5, on the growth of the same strains for an octanoylglycine+zinc gluconate combination was determined.

Propionibacterium acnes = experiment: Minimum inhibitory concentration at pH 5 on growth of Propionibacterium acnes; type: cell-based; conditions: P. acnes, pH 5, product alone
Procedure: as §1, §2

lipase = experiment: Anti-lipase test: titration of free fatty acids formed from triglycerides; type: biochemical
Procedure: The test involves assaying the free fatty acids obtained by degradation of the triglycerides with lipase. A known amount of triglycerides (“Lipase Substrate” sold by the company Sigma), a known amount of lipase (“Enzyme Control 2E” sold by the company Sigma) and the test composition are placed together in a tube. After an incubation period of three hours at 37° C., the enzymatic reaction is stopped and the free fatty acids formed are assayed by titration with 0.05 M sodium hydroxide. The results are expressed as a percentage of inhibition of the enzyme by the composition considered, by comparing it with a control test.

Staphylococcus epidermis = experiment: Minimum inhibitory concentration at pH 5 on growth of Staphylococcus epidermis; type: cell-based; conditions: Staph. Epidermis, pH 5, product alone
Procedure: as §1, §2

[1] = molecular target: T1, human leukocytic elastase (HLE) (Homo sapiens, UniProt P08246); experiment: Anti-elastase test: hydrolysis of N-methoxysuccinyl-alanine-proline-valine-para-nitroanilide, spectrophotometry at 410 nm; type: biochemical
T1 sequence (P08246 30-267): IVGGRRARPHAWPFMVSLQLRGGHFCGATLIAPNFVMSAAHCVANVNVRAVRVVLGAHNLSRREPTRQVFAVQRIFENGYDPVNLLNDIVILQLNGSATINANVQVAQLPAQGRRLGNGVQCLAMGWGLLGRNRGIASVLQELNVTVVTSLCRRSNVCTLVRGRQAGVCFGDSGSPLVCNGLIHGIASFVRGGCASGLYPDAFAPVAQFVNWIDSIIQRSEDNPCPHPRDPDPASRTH
Procedure: Such a substance can be, for example, N-methoxysuccinyl-alanine-proline-valine-para-nitroanilide, a normally colourless substance which releases, by hydrolysis with human leukocytic elastase, a coloured product, para-nitroaniline, whose appearance kinetics can be monitored by spectrophotometry at 410 nm.
The reaction is carried out in a spectrophotometer thermostatically set at 25° C. and equipped with a sample changer. All of the kinetics are carried out a minimum of three times, the average and the standard deviation then being calculated for the three values obtained.
The presence of a molecule with anti-elastase activity is reflected by a limitation of the appearance of the coloured product and the anti-elastase effect can then be calculated relative to a control curve obtained in the absence or the said molecule.
A correlation thus exists between the percentage of inhibition of the appearance of the coloured product by the test compound and the percentage of inhibition of human leukocytic elastase.

Molecule	minimum inhibitory concentration (Staphylococcus aureus) [%]	minimum inhibitory concentration (Propionibacterium acnes) [%]	percentage of inhibition of lipase (lipase; 0.13% solution of zinc gluconate, same operating conditions) [%]	minimum inhibitory concentration (Staphylococcus epidermis) [%]	% inhibition of elastase ([1]; 0.625% octanoylglycine alone) [%]	inhibitory activity on elastase (in words) ([1]; at the concentrations tested)	percentage of inhibition of lipase (lipase; 1.6% octanoylglycine, 3 hours at 37° C.) [%]
zinc gluconate	0.5	1	40	10.5			
CCCCCCCC(=O)NCC(=O)O [octanoylglycine]	0.25	0.5		0.20	5	no inhibitory activity	44

Source: patent publication US20010002257A1, “Composition comprising a lipoamino acid and the constituents of a tannin-rich plant extract, and cosmetic use thereof” (priority 1997, published 2001)
